In brackets after ≈: the same amount, converted by molar mass. Structures can show the parent of a compound that is named as a salt. Where two headings read alike, the source gives them in different places.

These results are taken from US4645769A, “1-oxa-1-dethia-cephalosporin compounds and antibacterial agent comprising the same” (Merck & Co., Inc., priority 1985, dated 1987).

Data set [1] deals with Pseudomonas aeruginosa E-2. Description: Minimum Inhibitory Concentration (MIC), antibacterial spectrum in vitro. In kind it is cell-based.
The test system of data set [2] is Staphylococcus aureus 209 P JC-1. Described as above. The data set is classed as cell-based.
The nature of data set [3]: Concentration in Blood Serum after subcutaneous dosing (bioassay using Escherichia coli). In kind it is in vivo. Particulars: mouse, sc, 25 mg/Kg subcutaneously, mice; for concentration at 0.5 h: 1/2 hour; for concentration at 0.25 h: 1/4 hour; for concentration at 5 min: 1/12 hour. As for the experimental part:
The concentration of the compound in the serum was determined by bioassay using Escherichia coli as assay microorganism.

Data set [4] relates to Pseudomonas aeruginosa RPL-11. Briefly: Minimum Inhibitory Concentration (MIC), antibacterial spectrum in vitro. The data set is classed as cell-based.
In data set [5] the test system is Citrobacter freundii GN-346. The description is as above. The data set is classed as cell-based.
Data set [6] concerns Salmonella typhimurium LT-2. The data set is described as above. The data set is classed as cell-based. Particulars: Salmonella enterica, read-out: Minimum Inhibitory Concentration (MIC).
Data set [7] deals with Esherichia coli NIHJ JC-2. The data set is described as above. In kind it is cell-based.
In data set [8] the test system is Pseudomonas aeruginosa MB-3833. The description is as above. The data set is classed as cell-based.
For data set [9], the system named is Pseudomonas aeruginosa (GN 10362). Description: Efficacy in Mice Infected with Pseudomonas aeruginosa (GN 10362). The data set is classed as in vivo. Particulars: GN10362, sc, 168 h. From the text: (§1) A systemic infection was produced by intraperitoneal injection of the appropriate pathogen to mice (five male mice in each group, average body weight 20 g), and the mice were received single subcutaneous dose of the compound one hour after the infection.

Data set [10] relates to Enterobacter cloacae P99. Briefly: Minimum Inhibitory Concentration (MIC), antibacterial spectrum in vitro. In kind it is cell-based. Particulars: P99, read-out: Minimum Inhibitory Concentration (MIC).
The subject of data set [11] is Proteus morganii 1510. The description is as above. The data set is classed as cell-based.
In data set [12] the test system is Streptococcus faecalis ATCC 8043. The description is as above. The data set is classed as cell-based. Particulars: Enterococcus faecalis.
Data set [13] relates to Esherichia coli TEM DC-2. The data set is described as above. In kind it is cell-based. Particulars: read-out: Minimum Inhibitory Concentration (MIC).
The test system of data set [14] is Klebsiella pneumoniae PCI 602. The data set is described as above. In kind it is cell-based.
Data set [15] deals with Staphylococus aureus (Smith I). Briefly: Efficacy in Mice Infected with Staphylococus aureus (Smith I). The data set is classed as in vivo. Particulars: Staphylococcus aureus, sc, 168 h, St. aureus (Smith I) intraperitoneal infection, single subcutaneous dose one hour after infection, 7 days.
Excerpt: as §1

For data set [16], the system named is Pseudomonas aeruginosa. Briefly: Antibacterial activity against Pseudomonas aeruginosa (from Table 1). The data set is classed as cell-based. Particulars: in words.
Where [17] appears, read: E2, Pseudomonas aeruginosa E-2, read-out: Minimum Inhibitory Concentration (MIC).
The mark [18] stands for this setting: 209PJC1, Staphylococcus aureus 209 P JC-1, read-out: Minimum Inhibitory Concentration (MIC).
[19] abbreviates: RPL11, Pseudomonas aeruginosa RPL-11, read-out: Minimum Inhibitory Concentration (MIC).
[20] abbreviates: GN346, Citrobacter freundii GN-346, read-out: Minimum Inhibitory Concentration (MIC).
Where [21] appears, read: MB3833, Pseudomonas aeruginosa MB-3833, read-out: Minimum Inhibitory Concentration (MIC).
Where [22] appears, read: Ps. aeruginosa (GN 10362) intraperitoneal infection, mice, single subcutaneous dose one hour after infection, 7 days, read-out: ED 50.
The mark [23] stands for this setting: Morganella morganii, Proteus morganii 1510, read-out: Minimum Inhibitory Concentration (MIC).
Where [24] appears, read: ATCC8043, Streptococcus faecalis ATCC 8043, read-out: Minimum Inhibitory Concentration (MIC).
Setting [25] is: PCI602, Klebsiella pneumoniae PCI 602, read-out: Minimum Inhibitory Concentration (MIC).

For `CC(C)(O/N=C(\C(=O)N[C@@H]1C(=O)N2C(C(=O)[O-])=C(C[n+]3ccccc3)CS[C@H]12)c1csc(N)n1)C(=O)O` [Ceftazidime, reference compound], the MIC in [1] (Pseudomonas aeruginosa, E2, read-out: Minimum Inhibitory Concentration (MIC)) is 0.78 µg/mL (≈ 1.43 µM); in data set [2] (Staphylococcus aureus, 209PJC1, read-out: Minimum Inhibitory Concentration (MIC)), 1.56 µg/mL (≈ 2.85 µM); in data set [4] (Pseudomonas aeruginosa, RPL11, read-out: Minimum Inhibitory Concentration (MIC)), 3 µg/mL (≈ 5.49 µM); in [5] (Citrobacter freundii, GN346, read-out: Minimum Inhibitory Concentration (MIC)) it was 25 µg/mL (≈ 45.7 µM); in data set [6] (TYPHIMURIUM), 0.05 µg/mL (≈ 0.0915 µM); in [7], 0.1 µg/mL (≈ 0.183 µM). The MIC in data set [8] (Pseudomonas aeruginosa, MB3833, read-out: Minimum Inhibitory Concentration (MIC)) was found to be 0.78 µg/mL (≈ 1.43 µM); in data set [10] it was 64 µg/mL (≈ 117 µM); in [11] (Morganella morganii, 1510, read-out: Minimum Inhibitory Concentration (MIC)), 12.5 µg/mL (≈ 22.9 µM); in [12] (ATCC8043, read-out: Minimum Inhibitory Concentration (MIC)), 50 µg/mL (≈ 91.5 µM); in [13], 0.5 µg/mL (≈ 0.915 µM); in data set [14] (Klebsiella pneumoniae, PCI602, read-out: Minimum Inhibitory Concentration (MIC)), 0.1 µg/mL (≈ 0.183 µM). Moreover, in data set [3], the concentration at 0.5 h was 11500 ng/mL. The compound further gave a concentration at 0.25 h in data set [3] of 20000 ng/mL. The compound also gave a concentration at 5 min in [3] of 13000 ng/mL. The concentration at 1 h in data set [3] worked out at 6300 ng/mL. The same compound had an ED50 in data set [9] of 0.22 mg/kg.

Take `CC1OC2C(NC(=O)C(=NOC(C)(C)C(=O)O)c3csc(N)n3)C(=O)N2C(C(=O)[O-])=C1CSc1cc[n+](C)cc1` [Compound 1, (6R,7R)-7-((Z)-2-(2-Aminothiazole-4-yl)-2-(2-carboxyprop-2-oxyimino)acetamide)-(2S)-2-methyl-3-(1-methyl-pyridinium-4-ylthiomethyl)-1-oxa-1-oxa-1-dethiaceph-3-em-4-carboxylate (Sodium Salt)]: the MIC came to 3.13 µg/mL in data set [1] (setting [17]); 1.56 µg/mL in data set [2] (setting [18]); 4 µg/mL in data set [4] (setting [19]); 0.78 µg/mL in data set [5] (setting [20]); 0.05 µg/mL in [6] (Salmonella typhimurium LT-2); 0.2 µg/mL in [7]. The MIC in data set [8] (setting [21]) worked out at 3.13 µg/mL; in data set [10] it was 1 µg/mL; in data set [11] (setting [23]), 0.39 µg/mL; in data set [12] (setting [24]) it was 50 µg/mL; in data set [13], 0.5 µg/mL; in data set [14] (setting [25]), 0.2 µg/mL. Further, the results for the ED50 in data set [15] and in data set [9] (setting [22]) were 0.028 mg/kg and 0.16 mg/kg, respectively. The compound further gave a concentration at 0.5 h in data set [3] of 10600 ng/mL. Besides, the concentration at 0.25 h in data set [3] is 18500 ng/mL. This compound gave a concentration at 5 min in data set [3] of 14500 ng/mL. This compound also returned a concentration at 1 h in [3] of 2200 ng/mL. For the same compound, the “effectiveness against Pseudomonas aeruginosa” value (“effectiveness” below) in data set [16] is “effective against Pseudomonas aeruginosa”.

In the case of `C[n+]1ccc(SCC2=C(C(=O)[O-])N3C(=O)C(NC(=O)C(=NOC(C)(C)C(=O)O)c4csc(N)n4)C3OC2)cc1` [Compound 14, (6R,7R)-7-((Z)-2-(2-Aminothiazole-4-yl)-2-(2-carboxyprop-2-oxyimino)acetamide-3-(1-methylpyridinium-4-yl-thiomethyl)-1-oxa-1-dethiaceph-3-em-4-carboxylate (Sodium Salt)], the MIC in [1] (setting [17]) is 1.56 µg/mL; in [2] (setting [18]), 1.56 µg/mL; in [4] (setting [19]) it was 64 µg/mL; in [5] (setting [20]), 50 µg/mL; in data set [6] (Salmonella typhimurium LT-2) it was less than 0.025 µg/mL; in [7], 0.1 µg/mL. In addition, the MIC in [8] (setting [21]) is 1.56 µg/mL; in data set [10], 128 µg/mL; in data set [11] (setting [23]), 3.13 µg/mL; in [12] (setting [24]) it was more than 100 µg/mL; in data set [13] it was 0.25 µg/mL; in data set [14] (setting [25]), 0.1 µg/mL. Moreover, the ED50 in [15] worked out at 0.016 mg/kg; in data set [9] (setting [22]), 0.13 mg/kg. For the same compound, in data set [3], the concentration at 0.5 h is 8800 ng/mL. In [3], the concentration at 0.25 h stood at 11500 ng/mL. The concentration at 5 min in data set [3] worked out at 18000 ng/mL. The compound also showed a concentration at 1 h in [3] of 5000 ng/mL. Moreover, the “effectiveness” value in data set [16] is recorded as “effective against Pseudomonas aeruginosa”.

For the compound `CC(C)(ON=C(C(=O)NC1C(=O)N2C(C(=O)[O-])=C(CSc3cc[n+](CC(F)(F)F)cc3)COC12)c1csc(N)n1)C(=O)O` [Compound 16, (6R,7R)-7-((Z)-2-(2-Aminothiazole-4-yl)-2-(2-carboxyprop-2-oxyimino)acetamide)-3-(1-(2,2,2-trifluoroethyl)-pyridinium-4-ylthiomethyl)-1-oxa-1-dethiaceph-3-em-4-carboxylate (Sodium Salt)], the MIC is 1.56 µg/mL in data set [1] (setting [17]); 3.13 µg/mL in data set [2] (setting [18]); 32 µg/mL in [4] (setting [19]); 25 µg/mL in [5] (setting [20]); less than 0.025 µg/mL in [6] (Salmonella typhimurium LT-2); 0.1 µg/mL in [7]. Moreover, the MIC in [8] (setting [21]) is 1.56 µg/mL; in [10] it was 128 µg/mL; in data set [11] (setting [23]), 6.25 µg/mL; in [12] (setting [24]), more than 100 µg/mL; in [13], 0.03 µg/mL; in [14] (setting [25]), 0.1 µg/mL. The same compound displayed a concentration at 0.5 h in data set [3] of 11000 ng/mL. In [3], this compound showed a concentration at 0.25 h of 20000 ng/mL. Moreover, the concentration at 5 min in data set [3] was 16000 ng/mL. For the same compound, the concentration at 1 h in data set [3] is 2400 ng/mL. Also, the “effectiveness” value in data set [16] is recorded as “effective against Pseudomonas aeruginosa”.

Take `CO[C@@]1(NC(=O)C(C(=O)O)c2ccc(O)cc2)C(=O)N2C(C(=O)O)=C(CSc3nnnn3C)CO[C@@H]21` (some centres unmarked) [Latamoxef, reference compound]: the MIC in data set [1] (setting [17]) is 6.25 µg/mL (≈ 12 µM); in [2] (setting [18]) it was 3.13 µg/mL (≈ 6.01 µM); in [5] (setting [20]) it was 1.56 µg/mL (≈ 3 µM); in [6] (Salmonella typhimurium LT-2), 0.05 µg/mL (≈ 0.0961 µM); in data set [7], 0.1 µg/mL (≈ 0.192 µM); in [8] (setting [21]), 6.25 µg/mL (≈ 12 µM). Moreover, the MIC in data set [11] (setting [23]) worked out at 0.2 µg/mL (≈ 0.384 µM); in data set [12] (setting [24]) it was 25 µg/mL (≈ 48 µM); in data set [14] (setting [25]), 0.2 µg/mL (≈ 0.384 µM). Besides, the values for the ED50 in data set [15] and in data set [9] (setting [22]) were 0.67 mg/kg and 2.9 mg/kg, respectively.
